Data from patent publication US20090192125A1, “Local anti-infective agent for treatment of nail fungal infections” (DermWorx Incorporated, priority 2007, published 2009).
Where two headings read alike, the source gives them in different places.

What was measured:
[1] = Penetration of hydroxypyridine-2-thione zinc (PT) into minced human fingernail clips (incubation, 30% DMSO extraction, absorption at 318 nm); format: in vitro ADME
Description: These studies measured the penetration of stock solutions of hydroxypyridine-2-thione zinc (PT) in human fingernails.
PT was dissolved in 100% DMSO at a concentration of 2 mg/mL to form a PT stock solution. PT working solution was made by mixing 300 μL of the PT stock solution with 700 μL of water. The final concentration was 0.6 mg/mL (30% DMSO). The nail pieces (0.1 g) were incubated in 1 mL of PT working solution overnight at room temperature. After incubation, the pieces were washed with water three times in a spin column. The pieces were then incubated in 200 μL of 30% DMSO to extract PT for 4 hours at room temperature (“Extracting Solution”).
A standard curve of PT was established by measuring the absorption at 318 nm in 500 μL samples of 30% DMSO containing 0.25, 0.5, 0.75, 1, and 2 μg PT. Standard solutions and subsequent dilutions were prepared as above. The solutions in their desired concentrations were then incubated at room temperature for 5 min prior to spectrophotometric determination.

[2] = for NaOM in 50 μL sample: 0.1 g nail pieces incubated 24 h at room temperature, extracted in 1 mL water for 24 h; for NaOM conc in sample: Extracting Solution
Description: These studies measured the penetration of stock solutions of sodium omadine in human fingernails. Sodium omadine (NaOM) 98% was obtained from Acros Organics, a division of Global Fisher Scientific.
Stock Solution #1. Dissolved 100 mg of NaOM in 100 mL of purified water (1.0 mg/mL).
Stock Solution #2. Diluted 2 mL of Stock Solution #1 to 100 mL of purified water (20 μg/mL).
Standard Solution #1 (2.50 μg/mL). Diluted 12.5 mL of Stock Solution #2 to 100 mL with purified water.
Standard Solution #2 (5.00 μg/mL). Diluted 25 mL of Stock Solution #2 to 100 mL with purified water.
Standard Solution #3 (7.50 μg/mL). Diluted 37.5 mL of Stock Solution #2 to 100 mL with purified water.
Standard Solution #4 (10.0 μg/mL). Diluted 50 mL of Stock Solution #2 to 100 mL with purified water.
Standard Solution #5 (20.0 μg/mL). No dilution was necessary, same as Stock Solution #2.
Nail clips, pooled from six human volunteers were cut into small pieces of approximately 0.5-1 mm×2-3 mm. The nail pieces, 0.1 g, were placed in each of the above solutions at room temperature and incubated for twenty-four hours. After incubation, the pieces were washed quickly three times with purified water to remove any residual solution on the nail surface. The pieces were then incubated in 1 mL of purified water for twenty-four hours at room temperature to extract the NaOM absorbed into the nail bed (“Extracting Solution”).
A standard curve of NaOM was made by measuring the absorption at 318 nm for a 500 μL sample containing 0.25, 0.50, 0.75, 1.0, and 2.0 μg of NaOM. An aliquot (50 μL) of each Standard Solution (#1-#5) was diluted to 500 μL with 1 mM cupric chloride (CuCl2). The standard solutions were freshly prepared and incubated at room temperature for fifteen minutes prior to spectrophotometric determination.
The amount of NaOM in each sample of Extracting Solution was determined at 318 nm. Similarly, a 50 μL aliquot of each Extracting Solution was diluted to 500 μL with 1 mM CuCl2 and incubated at room temperature for 15 minutes. The amount of NaOM in each sample of Extracting Solution was then determined at 318 nm by spectrophotometry. The concentration of the NaOM adsorbed into the nail was determined from the standard curve.

[3] = commercially available topical treatment of onychomycosis; cited from earlier work
[4] = 0.6 mg/mL PT working solution (30% DMSO), 0.1 g nail incubated overnight, extracted in 200 μL of 30% DMSO for 4 h

For [O-]n1ccccc1=S.[O-]n1ccccc1=S.[Zn+2] [PT, hydroxypyridine-2-thione zinc], the “concentration of PT in Extracting Solution” value [1, 4] was 23000 ng/mL, the “concentration of PT in Extracting Solution (per 50 μL aliquot)” value [1, 4] was 1.15 μg/50 μL and the “penetration into fingernails (conclusion in words)” value ([1]; twelve hours or less incubation time) was “significant penetration”.

For [Na+].[O-][n+]1ccccc1[S-] [NaOM, Sodium omadine], the “NaOM in 0.1 g nail” value ([2]; Wk Sol Conc 0.01 mg/mL) was 1.02 µg, the “NaOM in 50 μL sample” value ([2]; Wk Sol Conc 0.01 mg/mL) was 0.34 µg and the “NaOM conc in sample” value ([2]; Wk Sol Conc 0.01 mg/mL) was 7 µg/mL. For the same compound, the “NaOM in 0.1 g nail” value ([2]; Wk Sol Conc 0.05 mg/mL) was 2.10 µg, the “NaOM in 50 μL sample” value ([2]; Wk Sol Conc 0.05 mg/mL) was 0.70 µg and the “NaOM conc in sample” value ([2]; Wk Sol Conc 0.05 mg/mL) was 14 µg/mL. The “NaOM in 0.1 g nail” value ([2]; Wk Sol Conc 0.1 mg/mL) was 3.99 µg, the “NaOM in 50 μL sample” value ([2]; Wk Sol Conc 0.1 mg/mL) was 1.33 µg and the “NaOM conc in sample” value ([2]; Wk Sol Conc 0.1 mg/mL) was 27 µg/mL.

For Cc1cc(C2CCCCC2)n(O)c(=O)c1 [Ciclopirox, ciclopirox], the “penetration across the layers of the nail (in words)” value [3] is listed as “poor penetration”.
